According to patent US20180161364A1 (priority 2015, published 2018):

Tests used:
Type in all cases: cell-based
[1] = test system: Aspergillus brasiliensis (DSM 1988/ATCC 16404); assay: microbe, parasite or virus in culture
Excerpt: (§1) The following bacteria and fungi strains and methods were used:
Aspergillus brasiliensis (2d) and (9d): MIC determined in accordance with a method of the European Committee on Antimicrobial Susceptibility Testing: EUCAST E.DEF 9.1, July 2008, “Method for the determination of broth dilution minimum inhibitory concentrations of antifungal agents for conidia forming moulds” available under www.eucast.

[2] = test system: Candida albicans (DSM 1386/ATCC 10231); assay: microbe, parasite or virus in culture; conditions: C. albicans
Excerpt: as §1
Candida albicans: MIC determined in accordance with the method described in EUCAST DEFINITIVE DOCUMENT EDef 7.2 “Method for the determination of broth dilution minimum inhibitory concentrations of antifungal agents for yeasts” available under www.eucast.org.

[3] = test system: Escherichia coli (DSM 1576/ATCC 8739); assay: microbe, parasite or virus in culture; conditions: E. coli
Excerpt: as §1
(§2) Pseudomonas aeruginosa and Escherichia coli: MIC determined in accordance with DIN EN ISO 20776-1: 2006.

[4] = test system: Pseudomonas aeruginosa (DSM 1128/ATCC 9027); assay: microbe, parasite or virus in culture; conditions: P. aeruginosa
Excerpt: as §1, §2

[5] = test system: Human corneal epithelial cells (HCE-T-cell line); assay: MTT toxicity test; conditions: compound 0.01%, 10 minutes treatment, in reference to KRB (100% viability) and Triton X (0% viability)
Procedure: The toxicity of the compounds of the invention was determined in accordance with a conventional MTT test. Human corneal epithelial cells (HCE-T-cell line) were cultivated in 5% Sasaki cell culture medium consisting of 250 ml DMEM (Dulbecco's Modified Eagle's Medium), 250 ml Ham's F12 medium, 27.17 ml fetale calf serum, 543.4 μl insulin 5 mg/ml, 1.086 ml EGF stock solution 5 μg/ml, 2.717 ml DMSO and 5.43 ml antibiotic/antimycotic solution. The cells were seeded into a 96 wells cell culture plate (18 000 cells/well) and grown in an incubator for about 24 h (37° C., 5% CO2). The medium was removed and the test compounds dissolved in KRB (Krebs Ringer buffer) were applied. 100 μl KRB were used as positive control whereas a 0.5% Triton X solution was used as negative control.
After incubation for 10 min. under light protection the test compounds were removed and the plates were rinsed once with 100 μl phosphate buffered saline (PBS without Mg and Ca) per well. After removal of PBS 100 μl MTT reagent (0.05%) were added into each well followed by incubation for 3h at 37° C. under light protection. Thereafter, the reagent was removed and replaced by 100 μl lysis solution. The dark blue dye was dissolved from the cells by shaking. After 30 min. the plate was evaluated by UV spectroscopy at 570 nm.

SMILES | MIC ([1]; 48 h, A. bras. (2d)) [µg/mL] | MIC ([1]; 216 h, A. bras. (9d)) [µg/mL] | MIC [2] [µg/mL] | MIC [3] [µg/mL] | MIC [4] [µg/mL] | Viability [5] [%]
c1cc(-c2cc[n+](CCCC[n+]3ccc(-c4ccncc4)cc3)cc2)ccn1 [Comp. ex. 3, reference compound] | 200 | 200 to 400 | 200 | 200 | > 400 | 
CC[N+](CC)(CC)C/C=C/C[n+]1ccc(CCCc2cc[n+](C/C=C/C[n+]3ccc(CCCc4cc[n+](C/C=C/C[N+](CC)(CC)CC)cc4)cc3)cc2)cc1 [Ex. 3] | 12.5 | 12.5 to 25 | < 3.1 | 50 | 25 | 90.3 ± 7.0
BrCCCC[n+]1ccc(-c2ccncc2)cc1 [Ex. 5] | 3.1 | 3.1 to 50 | 1.56 | 6.3 | 12.5 | 83.8 ± 12.6
CCCCCCCCCCCC[N+](C)(C)CCCC[n+]1ccc(-c2ccncc2)cc1 [Ex. 6.2] | 6.3 | 6.3 | < 3.12 | 6.3 | 12.5 | 74.9 ± 12.0
